Where a name gives a salt, the structure may show the parent alone.
Columns and labels:
[1] = Stability of the analytes in rat plasma at different storage conditions; assay type: in vitro ADME
Experimental: Analysis of QC samples was performed according to a standard curve, which was obtained from freshly prepared calibration standard samples. The autosampler stability was determined by placing samples in the autosampler rack at 8 ℃ for 24 h. The freeze-thaw stability was evaluated after three complete freeze-thaw cycles (-80 ℃ to 25 ℃) on consecutive days. The short-term stability was determined after samples were exposed to room temperature for 6 h. The long-term stability was assessed after storing the samples at -80 ℃ for 30 days. The analytes were considered stable if the deviation between the mean measured concentration and the nominal concentration was within ± 15.0%.

[2] = Metabolites detection in vivo in plasma, feces and urine (UHPLC-Q-TOF-MS); parameters: species or system rat; conditions: single oral losartan potassium 20 mg/kg
Experimental: For urine and feces, cumulative samples were collected over the following time intervals: 0–4, 4–8, 8–12, and 12–24 h after administration. The processing of the biological samples can be found in the Supplementary material.
The biological samples were processed as follows: For plasma, a total of 400 μL of pooled plasma was mixed by combining 50 μL aliquots from each time point. A 100 μL aliquot was mixed with 300 μL of methanol, vortexed for one minute, and centrifuged at 5,000 rpm for 10 minutes at 4°C [1]. In the case of urine, 1 mL was centrifuged at 4,000 rpm for 20 minutes at 4°C, and the supernatant was mixed with 2 mL of methanol, vortexed for one minute, and centrifuged at 12,000 rpm for 10 minutes at 4°C [2]. For fecal samples, 1.0 g of homogenized feces was extracted with 4 mL of methanol, sonicated in an ice-water bath for 20 minutes, and then centrifuged at 12,000 rpm for 10 minutes at 4°C [3]. Supernatants from the plasma, urine, and fecal extracts were evaporated under nitrogen gas, redissolved in methanol, and transferred to liquid chromatography vials. Samples were analyzed using UHPLC-Q-TOF-MS/MS for metabolite profiling.

[3] = in vivo; conditions: for MRT last: MRT0-t; for MRT inf: MRT 0-∞; for half-life: t1/2z
Experimental: The pharmacokinetic study was described as follows.
The UHPLC-TQ-MS analysis was conducted on an LC-30 AD ultra high-performance liquid chromatograph (Shimadzu, Japan) connected to an AB 4500 (AB Sciex, United States) Triple Quadrupole Mass Spectrometer with an ESI source. Chromatographic separation was achieved on an Acquity UHPLC HSS T3 column (100 × 2.1 mm, 1.8 μm) at 40 °C, and the eluent was aqueous formic acid (100:0.1, v/v) (A) and acetonitrile with formic acid (100:0.1, v/v) (B) at a flow rate of 0.3 mL min^−1. Gradient elution differs in the calculation of residual content and pharmacokinetic experiments. MRM mode was employed. Data processing was performed using Analyst Software (AB Sciex). The UHPLC-TQ-MS method validation was conducted in terms of selectivity, linearity, carryover, accuracy and precision, matrix effect, extraction recovery, dilution integrity, and stability under various conditions, which was performed in line with the FDA guidelines for bioanalytical assays. More details were described in the Supplementary material method.
The comparisons of the relative abundance of the genera between different groups were performed using the Wilcoxon rank-sum test. Comparisons between WKY and SHRs before and after CRO treatment were conducted using either a t-test or one-way ANOVA, with p values < 0.05 considered statistically significant. […] Graphs were created using GraphPad Prism 8.0 software.
For the determination of drug remaining contents in the supernatant, the gradient elution was as follows: 0.1–0.5 min at 45% B; 0.5–1.0 min at 45–65% B; 1.5–4.0 min at 65–85% B; 4.0–4.5 min at 85% B; 4.5–4.6 min at 85%–45% B; 4.6–5.0 min at 45% B. For pharmacokinetics, the gradient elution was performed as follows: 0–0.5 min at 30% B; 0.5–1.5 min at 30–45% B; 1.5–5.0 min at 45–60% B; 5.0–7.0 min at 60–80% B; 7.0–8.0 min at 80% B; 8.1–10.0 min at 30% B. The injection volume was 5 μ L. The multiple reaction monitoring (MRM) mode was used to detect analytes and IS in the positive ion mode. The mass spectrometry parameters were set as follows: ion spray voltage was 5500 V, turbo spray temperature (TEM) of 550℃; nebulizer gas (gas 1) of 50 psi; heater gas (gas 2) of 50 psi and curtain gas of 40 psi. Nitrogen was kept as the nebulizer and auxiliary gas.

[4] = tested on: gut microbiota; experiment: Fecal gut microbiota analysis after ceftriaxone treatment (16S rRNA, bacterial load); assay type: in vivo, rat; conditions: ceftriaxone sodium 400 mg/kg/day orally, 2 weeks; feces of WKYs and SHRs
Experimental: Fecal samples were freshly collected, rapidly frozen, and weighed before storage at −80 °C until use. The absolute quantification of bacterial 16S rRNA amplicon sequencing was conducted by Majorbio Bio-Pharm Technology Co. Ltd. in Shanghai, China. Total microbial genomic DNA was extracted using the E. Z. N. A.® Soil DNA Kit, following the manufacturer’s guidelines. The quality and concentration of the extracted DNA were assessed through 1.0% agarose gel electrophoresis and with a NanoDrop 2000 spectrophotometer. RT-PCR was performed using universal 16S primers (Forward: 5′-[sequence]-3′, Reverse: 5′-[sequence]-3′) ([Nadkarni et al., 2002]). The relative bacterial load was determined by normalizing the DNA content against the weight of feces from the untreated group.
Fecal DNA was extracted utilizing the E. Z. N. A.® Soil DNA Kit. The extracted DNA was analyzed using a 1% agarose gel, and its concentration and purity were assessed with NanoDrop2000 spectrophotometer. […] The resulting PCR products were purified, quantified, and homogenized to create a sequencing library, which was commissioned to Majorbio Bio Pharm Technology Co. Ltd. The sequencing data were processed using the DADA2 algorithm in Qiime 2 to obtain amplicon sequence variants (ASVs), followed by the removal of chloroplast and mitochondrial sequences. […]

[5] = Body weight and blood pressure during ceftriaxone treatment; conditions: ceftriaxone sodium 400 mg/kg/day orally, 2 weeks; WKYs and SHRs
[6] = parameters: method as in Yoo et al., 2016; conditions: ref Yoo et al., 2016; cited from earlier work
[7] = SHR, rat, in vivo, po, 20 mg/kg
[8] = WKY, rat, in vivo, po, 20 mg/kg

CCCCc1nc(Cl)c(C=O)n1Cc1ccc(-c2ccccc2-c2nn[nH]n2)cc1 [E-3179]
Stability RE ([1]; autosampler for 24 h (8 ℃), high nominal conc. (losartan 8000, E-3174 4000, E-3179 1600 ng/mL)): 2.34% | Stability RE ([1]; autosampler for 24 h (8 ℃), low nominal conc. (losartan 0.2, E-3174 10, E-3179 0.4 ng/mL)): 2.96% | Stability RE ([1]; autosampler for 24 h (8 ℃), middle nominal conc. (losartan 2000, E-3174 1000, E-3179 400 ng/mL)): 12.05% | Stability RE ([1]; room temperature for 6 h, high nominal conc. (losartan 8000, E-3174 4000, E-3179 1600 ng/mL)): -10.69% | Stability RE ([1]; room temperature for 6 h, low nominal conc. (losartan 0.2, E-3174 10, E-3179 0.4 ng/mL)): -2.22% | Stability RE ([1]; room temperature for 6 h, middle nominal conc. (losartan 2000, E-3174 1000, E-3179 400 ng/mL)): 4.87% | Stability RE ([1]; three freeze-thaw cycles, high nominal conc. (losartan 8000, E-3174 4000, E-3179 1600 ng/mL)): 6.66% | Stability RE ([1]; three freeze-thaw cycles, low nominal conc. (losartan 0.2, E-3174 10, E-3179 0.4 ng/mL)): 2.96% | Stability RE ([1]; three freeze-thaw cycles, middle nominal conc. (losartan 2000, E-3174 1000, E-3179 400 ng/mL)): 2.84% | Stability RE ([1]; −80°C for 30 days, high nominal conc. (losartan 8000, E-3174 4000, E-3179 1600 ng/mL)): 7.58% | Stability RE ([1]; −80°C for 30 days, low nominal conc. (losartan 0.2, E-3174 10, E-3179 0.4 ng/mL)): 3.27% | Stability RE ([1]; −80°C for 30 days, middle nominal conc. (losartan 2000, E-3174 1000, E-3179 400 ng/mL)): 9.16% | Abundance in feces and plasma, SHRs vs WKYs [2]: lower in SHRs than in WKYs | Abundance in urine, SHRs vs WKYs [2]: more abundant in urine | AUC0-∞ [3, 7]: 900.54 ± 226.29 ng·h/mL | AUC(0-t) [3, 7]: 850.57 ± 189.22 ng·h/mL | Cmax [3, 7]: 143.43 ± 108.27 ng/mL | MRT0-t [3, 7]: 7.68 ± 1.38 h | MRT 0-∞ [3, 7]: 11.33 ± 2.86 h | Tmax [3, 7]: 1.96 ± 1.15 h | t1/2z [3, 7]: 5.61 ± 3.15 h | MRT last [3, 7]: 6.99 ± 1.41 h | MRT inf [3, 7]: 9.57 ± 2.83 h | Tmax ([3]; SHR, rat, in vivo, po, 20 mg/kg, Tmax): 1.83 ± 1.69 h | half-life [3, 7]: 331 ± 148 min | Decrease of AUC0-∞ ([3]; SHRs compared to WKYs, losartan potassium 20 mg/kg intragastric): 36.13% | Cmax [3, 8]: 310.47 ± 243.53 ng/mL | MRT0-t [3, 8]: 10.46 ± 1.03 h | MRT 0-∞ [3, 8]: 15.25 ± 4.02 h | t1/2z [3, 8]: 5.29 ± 1.44 h | AUC(0-t) ([3]; WKY, rat, in vivo, po, 20 mg/kg, AUC0-t): 1340 ± 741 ng·h/mL | AUC(0-inf) ([3]; WKY, rat, in vivo, po, 20 mg/kg, AUC0-∞): 1410 ± 741 ng·h/mL | MRT last [3, 8]: 6.18 ± 1.58 h | MRT inf [3, 8]: 8.79 ± 4.19 h | half-life [3, 8]: 345 ± 163 min

CO/N=C(\C(=O)N[C@@H]1C(=O)N2C(C(=O)O)=C(CSc3nc(=O)c(=O)[nH]n3C)CS[C@H]12)c1csc(N)n1 [CRO, ceftriaxone disodium salt hemiheptahydrate]
α-diversity (Chao1, Shannon index) and bacterial abundance [4]: significant reduction | Body weight, CRO-treated vs untreated [5]: no differences in body weight

CCOC(=O)C1=C(COCCN)NC(C)=C(C(=O)OC)C1c1ccccc1Cl (centres unmarked) [amlodipine]
Systemic exposure in antibiotic-treated rats vs controls [6]: significantly elevated
